Experimental findings from ChEMBL document CHEMBL1134064, “Structure-activity relationship investigations of a potent and selective benzodiazepine oxytocin antagonist” (Bioorg Med Chem Lett, 2001) are described below.

pKi: −log10 of the molar value.

Data set [1] in a line: Volume distribution was determined. The class given is ADME, organism-based, Canis lupus familiaris. To be noted: dog, in vivo.
A short description of data set [2]: Plasma clearance was determined. It is filed as ADME, organism-based, Canis lupus familiaris. To be noted: dog.
The target in another data set is T1, Oxytocin receptor (Homo sapiens, UniProt P30559).
T1 sequence (P30559 whole entry): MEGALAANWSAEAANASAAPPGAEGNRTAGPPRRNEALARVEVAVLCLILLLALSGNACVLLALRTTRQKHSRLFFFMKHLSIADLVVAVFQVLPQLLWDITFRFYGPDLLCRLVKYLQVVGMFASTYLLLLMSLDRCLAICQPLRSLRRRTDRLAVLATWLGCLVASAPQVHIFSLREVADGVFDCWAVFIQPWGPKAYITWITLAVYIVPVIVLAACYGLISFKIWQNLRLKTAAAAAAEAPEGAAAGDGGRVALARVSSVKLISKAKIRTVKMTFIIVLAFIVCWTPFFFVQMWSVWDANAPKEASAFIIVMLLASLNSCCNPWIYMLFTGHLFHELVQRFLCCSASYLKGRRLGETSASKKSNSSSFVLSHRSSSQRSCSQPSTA
The experiment in a line: Inhibition of binding of [3H]oxytocin with human oxytocin receptor.

A short description of data set [3]: Bioavailability. It is filed as ADME, organism-based, Canis lupus familiaris. To be noted: dog, in vivo.

The term Vd denotes a proportionality between amount in the body and measured concentration, not a real space. A lower Vd goes with little distribution into tissue. As a reminder, the clearance is the volume of plasma or blood freed of the substance per unit of time. A lower clearance goes with a low capacity for elimination. The pKi is −log10 of the Ki, conventionally taken in molar units. A lower pKi goes with a high Ki. The compound `CC(=O)NC1N=C(c2ccccc2)c2ccccc2N(CC(=O)NCCc2cccc(Cl)c2)C1=O` (centres undefined) returned a Vd in data set [1] of 0.4 L/kg. Further, in data set [2], the clearance is 6 mL/min/kg. Further, on Oxytocin receptor, the pKi was 7.00.

Compound `CC(=O)CCCC(=O)NC1N=C(c2ccccc2)c2ccccc2N(CC(=O)NCCc2cccc(Cl)c2)C1=O` (centres undefined) yielded a Vd in data set [1] of 0.3 L/kg. Also, the clearance in data set [2] is 3 mL/min/kg. The pKi on Oxytocin receptor is 7.70.

As for `CC(=O)CCCC(=O)NC1N=C(C)c2ccccc2N(CC(=O)N[C@@H](Cc2ccc(Cl)c(Cl)c2)C(N)=O)C1=O` (some centres undefined), on Oxytocin receptor, the pKi was 6.70.

For the compound `CC(=O)NC1N=C(c2ccccc2)c2ccccc2N(CC(=O)N[C@@H](Cc2ccc(Cl)c(Cl)c2)C(N)=O)C1=O` (some centres undefined), on Oxytocin receptor, the pKi is 7.60.

Regarding `CC(=O)CCCC(=O)NC1N=C(c2ccccc2)c2ccccc2N(CC(=O)N[C@@H](Cc2ccc(F)cc2)C(N)=O)C1=O` (some centres undefined), the pKi at Oxytocin receptor was 7.10.

Compound `CC(=O)CCCC(=O)NC1N=C(c2ccccc2)c2ccccc2N(CC(=O)NCCCc2cccc(Cl)c2)C1=O` (centres undefined) gave a pKi on Oxytocin receptor of 7.00.

With `CC(=O)CCCC(=O)NC1N=C(c2ccccc2)c2ccccc2N(CC(=O)NC2=NOC(c3ccccc3)C2)C1=O` (centres undefined), the pKi at Oxytocin receptor was less than 5.50.

Take `CC(=O)CCCC(=O)NC1N=C(c2ccccc2)c2ccccc2N(CC(=O)NCCc2ccccc2)C1=O` (centres undefined): the pKi on Oxytocin receptor is 6.50.

`NC(=O)[C@H](Cc1ccc(Cl)c(Cl)c1)NC(=O)CN1C(=O)C(NC(=O)CN2CCOCC2)N=C(c2ccccc2)c2ccccc21` (some centres undefined) returned a Vd in data set [1] of 2.8 L/kg. For the same compound, in data set [2], the clearance was 33 mL/min/kg. On Oxytocin receptor, the pKi is 7.40.

`CC(=O)CCCC(=O)NC1N=C(c2ccccc2)c2ccccc2N(CC(=O)NCCc2ccc3ccccc3c2)C1=O` (centres undefined) gave a pKi on Oxytocin receptor of 7.80.

For the compound `CC(=O)CCCC(=O)NC1N=C(c2ccccc2)c2ccccc2N(CC(=O)NC2CCc3ccccc3C2)C1=O` (centres undefined), the Vd in data set [1] was determined as 0.2 L/kg. Besides, in data set [2], the clearance was 0.3 mL/min/kg. The compound further showed a pKi on Oxytocin receptor of less than 5.30.

Regarding `CC(=O)NC1N=C(c2ccccc2)c2ccccc2N(CC(=O)N[C@H](Cc2ccc(Cl)c(Cl)c2)C(N)=O)C1=O` (some centres undefined), the pKi at Oxytocin receptor is 6.10.

`CC(=O)CCCC(=O)NC1N=C(Cn2ccnc2)c2ccccc2N(CC(=O)N[C@@H](Cc2ccc(Cl)c(Cl)c2)C(N)=O)C1=O` (some centres undefined): the pKi on Oxytocin receptor was 6.10.

Take `CC(=O)CCCC(=O)NC1N=C(c2ccccc2)c2ccccc2N(CC(=O)N[C@@H](CC2CCCCC2)C(N)=O)C1=O` (some centres undefined): on Oxytocin receptor, the pKi was 6.10.

In the case of `CC(=O)CCCC(=O)NC1N=C(c2ccccc2)c2ccccc2N(CC(=O)NCCc2ccccc2Cl)C1=O` (centres undefined), the pKi at Oxytocin receptor was 6.70.

In turn, `CC(=O)NC1N=C(c2ccccc2)c2ccccc2N(CC(=O)N(C)CCc2cccc(Cl)c2)C1=O` (centres undefined) had a negative-log Ki (pKi) at Oxytocin receptor of 5.80.

The compound `CS(=O)(=O)NC1N=C(c2ccccc2)c2ccccc2N(CC(=O)N[C@@H](Cc2ccc(Cl)c(Cl)c2)C(N)=O)C1=O` (some centres undefined) gave a pKi at Oxytocin receptor of 6.30.

Take `CC(=O)NC1N=C(c2ccccc2)c2ccccc2N(CC(=O)NCCc2ccc(Cl)c(Cl)c2)C1=O` (centres undefined): the pKi at Oxytocin receptor is 7.00.

At Oxytocin receptor, `CC(=O)NC1N=C(c2ccccc2)c2ccccc2N(CC(=O)NCc2nc(-c3ccccc3)no2)C1=O` (centres undefined) showed a pKi of 6.10.

Usually bioavailability stands for the share of a dose that reaches the circulation, judged against a reference dose that is usually intravenous. A lower bioavailability goes with little systemic uptake. `CC(=O)CCCC(=O)NC1N=C(c2ccccc2)c2ccccc2N(CC(=O)N[C@@H](Cc2ccc(Cl)c(Cl)c2)C(N)=O)C1=O` (some centres undefined) gave a Vd in data set [1] of 0.6 L/kg. The same compound had a clearance in data set [2] of 62 mL/min/kg. In addition, in data set [3], the bioavailability was greater than 20%. For the same compound, the pKi at Oxytocin receptor is 8.10.

On Oxytocin receptor, `CC(=O)NC1N=C(c2ccccc2)c2ccccc2N(CC(=O)NCCc2cccc3ccccc23)C1=O` (centres undefined) had a negative-log Ki (pKi) of 7.00.

Take `CC(=O)NC1N=C(c2ccccc2)c2ccccc2N(CC(=O)NCc2nc(-c3ccc(Cl)c(Cl)c3)cs2)C1=O` (centres undefined): on Oxytocin receptor, the pKi was less than 5.30.

Consider `CC(=O)CCCC(=O)NC1N=C(c2ccccc2)c2ccccc2N(CC(=O)NCCc2ccc(Cl)c(Cl)c2)C1=O` (centres undefined), for which the Vd in data set [1] stood at 0.2 L/kg. Moreover, the clearance in data set [2] stood at 4 mL/min/kg. Also, in data set [3], the bioavailability turned out to be 12%. At Oxytocin receptor, this compound had a negative-log Ki (pKi) of 7.60.

At Oxytocin receptor, `CC(=O)CCCC(=O)NC1N=C(C2CCCCC2)c2ccccc2N(CC(=O)N[C@@H](Cc2ccc(Cl)c(Cl)c2)C(N)=O)C1=O` (some centres undefined) gave a pKi of 7.50.

With `CC(=O)CCCC(=O)NC1N=C(c2ccccc2)c2ccccc2N(CC(=O)NCCc2cccc3ccccc23)C1=O` (centres undefined), the pKi on Oxytocin receptor is 7.80.
